Active and inactive are the calls of the source. How the calls were made is not given here.
Tested on: CCRIS mutagenicity, Ames/micronucleus/aberration tests
Assay: CCRIS mutagenicity studies
[1] = Test System: AMES SALMONELLA TYPHIMURIUM, Strain/Indicator: TA97, Metabolic Activation: NONE, Method: PREINCUBATION
[2] = Test System: AMES SALMONELLA TYPHIMURIUM, Strain/Indicator: TA98, Metabolic Activation: NONE, Method: PREINCUBATION
[3] = Test System: AMES SALMONELLA TYPHIMURIUM, Strain/Indicator: TA100, Metabolic Activation: NONE, Method: PREINCUBATION
[4] = Test System: AMES SALMONELLA TYPHIMURIUM, Strain/Indicator: TA1535, Metabolic Activation: NONE, Method: PREINCUBATION
[5] = Test System: AMES SALMONELLA TYPHIMURIUM, Strain/Indicator: TA1537, Metabolic Activation: NONE, Method: PREINCUBATION
[6] = Test System: AMES SALMONELLA TYPHIMURIUM, Strain/Indicator: TA1538, Metabolic Activation: NONE, Method: PREINCUBATION
[7] = Test System: AMES SALMONELLA TYPHIMURIUM, Strain/Indicator: TA98, Metabolic Activation: NONE, Method: STANDARD PLATE
[8] = Test System: AMES SALMONELLA TYPHIMURIUM, Strain/Indicator: TA98, Metabolic Activation: RAT, LIVER, S-9, AROCLOR 1254, Method: STANDARD PLATE
[9] = Test System: AMES SALMONELLA TYPHIMURIUM, Strain/Indicator: TA100, Metabolic Activation: NONE, Method: STANDARD PLATE
[10] = Test System: AMES SALMONELLA TYPHIMURIUM, Strain/Indicator: TA100, Metabolic Activation: RAT, LIVER, S-9, AROCLOR 1254, Method: STANDARD PLATE

How did the mutagenic call (Test System: AMES SALMONELLA TYPHIMURIUM, Strain/Indicator: TA97, Metabolic Activation: HAMSTER, LIVER, S-9, AROCLOR 1254 (10 OR 30%), Method: PREINCUBATION) turn out when `CC(COC(=O)c1ccccc1)(COC(=O)c1ccccc1)COC(=O)c1ccccc1` was run?
Its mutagenic call is “inactive; negative”.

And the mutagenic call [1]?
The mutagenic call was “inactive; negative”.

What about the mutagenic call (Test System: AMES SALMONELLA TYPHIMURIUM, Strain/Indicator: TA97, Metabolic Activation: RAT, LIVER, S-9, AROCLOR 1254 (10 OR 30%), Method: PREINCUBATION) of the same molecule?
The mutagenic call was “inactive; negative”.

What about the mutagenic call (Test System: AMES SALMONELLA TYPHIMURIUM, Strain/Indicator: TA98, Metabolic Activation: HAMSTER, LIVER, S-9, AROCLOR 1254 (10 OR 30%), Method: PREINCUBATION) of the same molecule?
The mutagenic call was “inactive; negative”.

What about the mutagenic call [2] of the same molecule?
Its mutagenic call is “inactive; negative”.

And the mutagenic call (Test System: AMES SALMONELLA TYPHIMURIUM, Strain/Indicator: TA98, Metabolic Activation: RAT, LIVER, S-9, AROCLOR 1254 (10 OR 30%), Method: PREINCUBATION)?
The mutagenic call was “inactive; negative”.

What about the mutagenic call (Test System: AMES SALMONELLA TYPHIMURIUM, Strain/Indicator: TA100, Metabolic Activation: HAMSTER, LIVER, S-9, AROCLOR 1254 (10 OR 30%), Method: PREINCUBATION) of the same molecule?
Its mutagenic call is “inactive; negative”.

What about the mutagenic call [3] of the same molecule?
The mutagenic call was “inactive; negative”.

And the mutagenic call (Test System: AMES SALMONELLA TYPHIMURIUM, Strain/Indicator: TA100, Metabolic Activation: RAT, LIVER, S-9, AROCLOR 1254 (10 OR 30%), Method: PREINCUBATION)?
The mutagenic call was “inactive; negative”.

What about the mutagenic call (Test System: AMES SALMONELLA TYPHIMURIUM, Strain/Indicator: TA1535, Metabolic Activation: HAMSTER, LIVER, S-9, AROCLOR 1254 (10 OR 30%), Method: PREINCUBATION) of the same molecule?
Its mutagenic call is “inactive; negative”.

What about the mutagenic call [4] of the same molecule?
Its mutagenic call is “inactive; negative”.

What about the mutagenic call (Test System: AMES SALMONELLA TYPHIMURIUM, Strain/Indicator: TA1535, Metabolic Activation: RAT, LIVER, S-9, AROCLOR 1254 (10 OR 30%), Method: PREINCUBATION) of the same molecule?
Its mutagenic call is “inactive; negative”.

What about the mutagenic call (Test System: AMES SALMONELLA TYPHIMURIUM, Strain/Indicator: TA1537, Metabolic Activation: HAMSTER, LIVER, S-9, AROCLOR 1254 (30%), Method: PREINCUBATION) of the same molecule?
Its mutagenic call is “inactive; negative”.

What about the mutagenic call [5] of the same molecule?
The mutagenic call was “inactive; negative”.

What about the mutagenic call (Test System: AMES SALMONELLA TYPHIMURIUM, Strain/Indicator: TA1537, Metabolic Activation: RAT, LIVER, S-9, AROCLOR 1254 (30%), Method: PREINCUBATION) of the same molecule?
Its mutagenic call is “inactive; negative”.

What does the source list for `CCCCCC(=O)OCC`?
mutagenic call [1]: inactive; negative; mutagenic call (Test System: AMES SALMONELLA TYPHIMURIUM, Strain/Indicator: TA97, Metabolic Activation: RAT, LIVER, S-9, AROCLOR 1254, Method: PREINCUBATION): inactive; negative; mutagenic call (Test System: AMES SALMONELLA TYPHIMURIUM, Strain/Indicator: TA102, Metabolic Activation: NONE, Method: PREINCUBATION): inactive; negative; mutagenic call (Test System: AMES SALMONELLA TYPHIMURIUM, Strain/Indicator: TA102, Metabolic Activation: RAT, LIVER, S-9, AROCLOR 1254, Method: PREINCUBATION): inactive; negative

For `O=Cc1ccc(O)cc1`, which mutagenic call [2] is on record?
The mutagenic call was “inactive; negative”.

What about the mutagenic call (Test System: AMES SALMONELLA TYPHIMURIUM, Strain/Indicator: TA98, Metabolic Activation: RAT LIVER S-9, PHENOBARBITAL AND BETA-NAPHTHOFLAVONE, Method: PREINCUBATION) of the same molecule?
The mutagenic call was “inactive; negative”.

And the mutagenic call [3]?
The mutagenic call was “inactive; negative”.

What about the mutagenic call (Test System: AMES SALMONELLA TYPHIMURIUM, Strain/Indicator: TA100, Metabolic Activation: RAT LIVER S-9, PHENOBARBITAL AND BETA-NAPHTHOFLAVONE, Method: PREINCUBATION) of the same molecule?
Its mutagenic call is “inactive; negative”.

What about the mutagenic call [4] of the same molecule?
Its mutagenic call is “inactive; negative”.

And the mutagenic call (Test System: AMES SALMONELLA TYPHIMURIUM, Strain/Indicator: TA1535, Metabolic Activation: RAT LIVER S-9, PHENOBARBITAL AND BETA-NAPHTHOFLAVONE, Method: PREINCUBATION)?
The mutagenic call was “inactive; negative”.

And the mutagenic call [5]?
The mutagenic call was “inactive; negative”.

What about the mutagenic call (Test System: AMES SALMONELLA TYPHIMURIUM, Strain/Indicator: TA1537, Metabolic Activation: RAT LIVER S-9, PHENOBARBITAL AND BETA-NAPHTHOFLAVONE, Method: PREINCUBATION) of the same molecule?
Its mutagenic call is “inactive; negative”.

And the mutagenic call [6]?
The mutagenic call was “inactive; negative”.

And the mutagenic call (Test System: AMES SALMONELLA TYPHIMURIUM, Strain/Indicator: TA1538, Metabolic Activation: RAT LIVER S-9, PHENOBARBITAL AND BETA-NAPHTHOFLAVONE, Method: PREINCUBATION)?
The mutagenic call was “inactive; negative”.

And the mutagenic call (Test System: E.COLI, Strain/Indicator: WP2UVRA, Metabolic Activation: NONE, Method: PREINCUBATION)?
The mutagenic call was “inactive; negative”.

What about the mutagenic call (Test System: E.COLI, Strain/Indicator: WP2UVRA, Metabolic Activation: RAT LIVER S-9, PHENOBARBITAL AND BETA-NAPHTHOFLAVONE, Method: PREINCUBATION) of the same molecule?
Its mutagenic call is “inactive; negative”.

What does the source list for `Nc1ccc2ncsc2c1`?
mutagenic call [3]: inactive; negative; mutagenic call (Test System: AMES SALMONELLA TYPHIMURIUM, Strain/Indicator: TA100, Metabolic Activation: RAT LIVER S-9, PHENOBARBITAL AND 5,6-BENZOFLAVONE, Method: PREINCUBATION): inactive; negative; mutagenic call (Test System: AMES SALMONELLA TYPHIMURIUM, Strain/Indicator: YG1029, Metabolic Activation: NONE, Method: PREINCUBATION): inactive; negative; mutagenic call (Test System: AMES SALMONELLA TYPHIMURIUM, Strain/Indicator: YG1029, Metabolic Activation: RAT LIVER S-9, PHENOBARBITAL AND 5,6-BENZOFLAVONE, Method: PREINCUBATION): active; positive

With `O=C1C(c2[nH]c3ccccc3c2O)=Nc2ccccc21` as the molecule, how does the mutagenic call [7] read?
Its mutagenic call is “inactive; negative”.

And the mutagenic call [8]?
The mutagenic call was “active; positive”.

And the mutagenic call [9]?
The mutagenic call was “inactive; negative”.

What about the mutagenic call [10] of the same molecule?
Its mutagenic call is “inactive; negative”.

What does the source list for `O=CC(Cl)Cl`?
mutagenic call (Test System: CHINESE HAMSTER V-79, Strain/Indicator: V-79/OUABAIN, Metabolic Activation: NONE): inactive; negative; mutagenic call (Test System: UDS HUMAN CELLS, Strain/Indicator: EUE LINE/THY INCORP, Metabolic Activation: NONE, Method: AUTORADIOGRAPHY): inactive; negative

`O=C(c1ccccc1)[C@H]1O[C@H]1c1ccc(F)cc1` was tested. Which mutagenic call (Test System: AMES SALMONELLA TYPHIMURIUM, Strain/Indicator: TA98, Metabolic Activation: NONE, Method: PREINCUBATION (PHOSPHATE-BUFFERED KCL OR SOLUTE-FREE WATER MEDIA)) did it give?
The mutagenic call was “inactive; negative”.

And the mutagenic call [7]?
The mutagenic call was “inactive; negative”.

What about the mutagenic call [8] of the same molecule?
The mutagenic call was “inactive; negative”.

What about the mutagenic call (Test System: AMES SALMONELLA TYPHIMURIUM, Strain/Indicator: TA100, Metabolic Activation: NONE, Method: PREINCUBATION (PHOSPHATE-BUFFERED KCL OR SOLUTE-FREE WATER MEDIA)) of the same molecule?
The mutagenic call was “inactive; negative”.

What about the mutagenic call [9] of the same molecule?
Its mutagenic call is “inactive; negative”.

What about the mutagenic call [10] of the same molecule?
The mutagenic call was “inactive; negative”.

And the mutagenic call (Test System: AMES SALMONELLA TYPHIMURIUM, Strain/Indicator: TA104, Metabolic Activation: NONE, Method: PREINCUBATION (PHOSPHATE-BUFFERED KCL OR SOLUTE-FREE WATER MEDIA))?
Its mutagenic call is “inactive; negative”.

What about the mutagenic call (Test System: CHINESE HAMSTER V-79, Strain/Indicator: V-79 (HPRT)/6-THIOGUANINE, Metabolic Activation: NONE) of the same molecule?
Its mutagenic call is “inactive; negative”.

Which results are given for `NC(=O)N(c1ccccc1)c1ccc(C(=O)O)cc1`?
mutagenic call (Test System: AMES SALMONELLA TYPHIMURIUM, Strain/Indicator: TA98, Metabolic Activation: MAIZE SEEDLING, S-14, Method: PREINCUBATION): active; positive; mutagenic call (Test System: AMES SALMONELLA TYPHIMURIUM, Strain/Indicator: TA98, Metabolic Activation: MOUSE, LIVER, S-9, Method: PREINCUBATION): inactive; negative; mutagenic call [2]: inactive; negative; mutagenic call (Test System: AMES SALMONELLA TYPHIMURIUM, Strain/Indicator: TA100, Metabolic Activation: MAIZE SEEDLING, S-14, Method: PREINCUBATION): inactive; negative; mutagenic call (Test System: AMES SALMONELLA TYPHIMURIUM, Strain/Indicator: TA100, Metabolic Activation: MOUSE, LIVER, S-9, Method: PREINCUBATION): inactive; negative; mutagenic call [3]: inactive; negative; mutagenic call [4]: inactive; negative; mutagenic call [5]: inactive; negative; mutagenic call [6]: inactive; negative

What does the source list for `Cc1ccc(NN=NCc2ccc([N+](=O)[O-])cc2)cc1`?
mutagenic call [2]: active; positive; mutagenic call (Test System: AMES SALMONELLA TYPHIMURIUM, Strain/Indicator: TA98, Metabolic Activation: RAT, LIVER, S-9, PCB, Method: PREINCUBATION): active; positive; mutagenic call [3]: active; positive; mutagenic call (Test System: AMES SALMONELLA TYPHIMURIUM, Strain/Indicator: TA100, Metabolic Activation: RAT, LIVER, S-9, PCB, Method: PREINCUBATION): active; positive

Source: PubChem BioAssay AID1259407 (Chemical Carcinogenesis Research Information System (CCRIS), 2018)
